For seven compounds, GI50 and TGI results are on record in PubChem BioAssay (NCI).

“And” between values parts separate entries of the source, which are not always exact repeats. Identical values can stand only once.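 In this assay, cells in 96-well plates receive the compound at five concentrations for 48 hours. Endpoints are linearly interpolated between the surrounding concentrations. GI50: concentration for 50% inhibition of growth. TGI: concentration producing complete growth inhibition.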

Some test systems named below: COLO 205 colon; SNB-19 CNS; IGROV1 ovarian; RPMI-8226 leukemia; SNB-75 CNS; UACC-62 melanoma; HCT-116 colon; OVCAR-4 ovarian; HCT-15 colon; PC-3 prostate.
Experiment in all cases: growth of human tumour cells (NCI), 48 h

With `CCCCCC(=O)OCC(=O)O[C@@H]1C[C@]2(C(C)C)O[C@@]1(C)[C@@H]1CC[C@@H](C)[C@H]1[C@@H]2OC(=O)/C=C/c1ccccc1`, the GI50 is above 61.3 µM in the assay with COLO 205 colon; above 75.3 µM in the assay on SNB-19 CNS; above 33.4 µM with IGROV1 ovarian; 43.3 µM in the assay on RPMI-8226 leukemia; 42.4 µM in the assay on SNB-75 CNS; above 53.8 µM with UACC-62 melanoma. Further, the GI50 in the assay on HCT-116 colon was 32.2 µM; in the assay with OVCAR-4 ovarian, 26.5 µM; in the assay with HCT-15 colon, above 34.3 µM; with PC-3 prostate, 8.58 µM. Also, the TGI was above 95.9 µM in the assay with COLO 205 colon; above 100 µM in the assay with SNB-19 CNS; above 55.8 µM in the assay with IGROV1 ovarian; above 100 µM with RPMI-8226 leukemia; above 87.6 µM in the assay with SNB-75 CNS; above 100 µM with UACC-62 melanoma. The TGI in the assay on HCT-116 colon is above 100 µM; in the assay on OVCAR-4 ovarian, above 71.5 µM; with HCT-15 colon it was above 70 µM; in the assay on PC-3 prostate, above 100 µM.
On to `O=C(c1ccco1)c1c(C(F)(F)F)nc2cc(C(F)(F)F)ccc2[n+]1[O-]`, for which the GI50 is above 100 µM with COLO 205 colon; 40.7 µM in the assay on SNB-19 CNS; 26.5 µM in the assay on IGROV1 ovarian; 34.4 µM in the assay on RPMI-8226 leukemia; 16.6 µM in the assay with SNB-75 CNS; above 100 µM in the assay on UACC-62 melanoma. Also, the GI50 was 33.4 µM in the assay on HCT-116 colon, above 100 µM with OVCAR-4 ovarian, above 100 µM with HCT-15 colon and 44.9 µM with PC-3 prostate. The TGI was above 100 µM with COLO 205 colon; above 100 µM in the assay with SNB-19 CNS; 90.6 µM in the assay with IGROV1 ovarian; above 100 µM with RPMI-8226 leukemia; 42.7 µM with SNB-75 CNS; above 100 µM with UACC-62 melanoma. In addition, the TGI in the assay on HCT-116 colon, with OVCAR-4 ovarian, with HCT-15 colon and in the assay with PC-3 prostate was above 100 µM throughout.
Take `COc1cc(-c2nc(SCC(=O)Nc3ccc(C(C)=O)cc3)[nH]c(=O)c2C#N)cc(OC)c1OC`: the GI50 was above 100 µM in the assay with COLO 205 colon; 64 µM in the assay with SNB-19 CNS; 53.4 µM with IGROV1 ovarian; 29.9 µM in the assay with RPMI-8226 leukemia; 28.5 µM with SNB-75 CNS; 28 µM in the assay with UACC-62 melanoma. In addition, the GI50 was 42.1 µM in the assay with HCT-116 colon, 82.9 µM in the assay on OVCAR-4 ovarian, above 100 µM in the assay on HCT-15 colon and 36.4 µM in the assay with PC-3 prostate. The TGI in the assay with COLO 205 colon, with SNB-19 CNS, in the assay with IGROV1 ovarian, in the assay on RPMI-8226 leukemia, with SNB-75 CNS and with UACC-62 melanoma was above 100 µM each time. Also, the TGI in the assay with HCT-116 colon, in the assay on OVCAR-4 ovarian, in the assay on HCT-15 colon and with PC-3 prostate was above 100 µM throughout.
In the case of `O=C1C=CN(C2OC(CO)C(O)C2O)C(=O)C1` (stereo not drawn), the GI50 was 60.2 µM in the assay with COLO 205 colon; > 625 µM and 819 µM in the assay on SNB-19 CNS; 77 µM with IGROV1 ovarian; 23.1 µM in the assay with RPMI-8226 leukemia; 33.3 µM with UACC-62 melanoma; 2.54 µM in the assay with HCT-116 colon. Also, the GI50 with OVCAR-4 ovarian is > 625 µM and 953 µM; in the assay on HCT-15 colon it was 54.6 µM. The TGI with COLO 205 colon is 625 µM and > 2500 µM; with SNB-19 CNS, above 2500 µM; with IGROV1 ovarian it was 625 µM and > 2210 µM; with RPMI-8226 leukemia, 496 µM and > 2500 µM; in the assay with SNB-75 CNS, above 2500 µM; with UACC-62 melanoma it was 625 µM and > 1840 µM. Besides, the TGI was 625 µM and > 2500 µM in the assay with HCT-116 colon; above 2500 µM in the assay on OVCAR-4 ovarian; 625 µM and > 2500 µM in the assay with HCT-15 colon; above 2500 µM in the assay with PC-3 prostate.
For the compound `O=C(Nc1cccc2cccnc12)c1ccc(N2C(=O)[C@@H]3[C@H](C2=O)[C@@H]2C=C[C@H]3C2)cc1`, the GI50 in the assay with COLO 205 colon was 37.6 µM; with SNB-19 CNS, 41.6 µM; in the assay on IGROV1 ovarian, 32.7 µM; with RPMI-8226 leukemia, 23.2 µM; in the assay with SNB-75 CNS, above 44.2 µM; in the assay on UACC-62 melanoma, 22.4 µM. Further, the GI50 in the assay with HCT-116 colon is 35.8 µM; in the assay with OVCAR-4 ovarian it was 3.26 µM; with HCT-15 colon, 30.7 µM; in the assay with PC-3 prostate it was 25.1 µM. Also, the TGI in the assay on COLO 205 colon was above 100 µM; in the assay with SNB-19 CNS, above 100 µM; with IGROV1 ovarian, above 100 µM; in the assay with RPMI-8226 leukemia it was above 88.2 µM; with SNB-75 CNS, above 100 µM; in the assay on UACC-62 melanoma, above 86.3 µM. In addition, the TGI in the assay with HCT-116 colon was above 100 µM; with OVCAR-4 ovarian, 48.6 µM; in the assay with HCT-15 colon it was above 100 µM; with PC-3 prostate, above 100 µM.
For the compound `COc1cc(C2CC(c3ccc4c(c3)OCO4)=NN2C(C)=O)cc(OC)c1OC` (stereo not drawn), the GI50 was 0.466 µM with COLO 205 colon; 1.91 µM with SNB-19 CNS; 1.19 µM with IGROV1 ovarian; 2.74 µM in the assay with RPMI-8226 leukemia; 0.398 µM with SNB-75 CNS; 0.493 µM in the assay with UACC-62 melanoma. Besides, the GI50 was 0.491 µM in the assay with HCT-116 colon, 5.45 µM in the assay with OVCAR-4 ovarian, 0.584 µM in the assay with HCT-15 colon and 4.39 µM in the assay with PC-3 prostate. For the same compound, the TGI in the assay with COLO 205 colon is 2.6 µM; with SNB-19 CNS, above 100 µM; in the assay with IGROV1 ovarian, 97.3 µM; in the assay with RPMI-8226 leukemia it was above 25.7 µM; with SNB-75 CNS it was 3.5 µM; with UACC-62 melanoma, above 100 µM. Also, the TGI in the assay on HCT-116 colon, in the assay with OVCAR-4 ovarian, with HCT-15 colon and in the assay with PC-3 prostate was above 100 µM each time.
As to `CC(C)=CCC/C(C)=C/CC/C(=C/COP(=O)(OCc1ccc([N+](=O)[O-])o1)N(C)CCCCCl)CC=C(C)C` (stereo not drawn), the GI50 in the assay with COLO 205 colon was 8.01 µM; in the assay on SNB-19 CNS, 19.5 µM; in the assay with IGROV1 ovarian, 3.39 µM; with RPMI-8226 leukemia it was 3.56 µM; with SNB-75 CNS it was 12.1 µM; with UACC-62 melanoma it was 14.3 µM. Besides, the GI50 was 2.06 µM in the assay on HCT-116 colon, 11.9 µM with OVCAR-4 ovarian, 2.65 µM in the assay with HCT-15 colon and 8.62 µM in the assay with PC-3 prostate. For the same compound, the TGI in the assay with COLO 205 colon was 66.4 µM; with SNB-19 CNS it was 41.9 µM; in the assay with IGROV1 ovarian, 14.4 µM; with RPMI-8226 leukemia, above 100 µM; in the assay with SNB-75 CNS it was 36.8 µM; in the assay with UACC-62 melanoma it was 32.5 µM. For the same compound, the TGI in the assay with HCT-116 colon came out at 7.97 µM; with OVCAR-4 ovarian it was 48.3 µM; in the assay on HCT-15 colon, 12.5 µM; in the assay on PC-3 prostate it was 24.3 µM.
